The record followed here is PMC9598407, “Identification of Staphylococcus aureus Penicillin Binding Protein 4 (PBP4) Inhibitors” (Antibiotics, 2022).

One assay deals with S. aureus strain CRB. Nature of the assay: Fractional inhibitory concentration checkerboard, ceftobiprole + putative PBP4 inhibitor, strain CRB. Format: cell-based, Staphylococcus aureus. On the procedure:
Fractional inhibitory testing was performed in checkerboard format to determine whether putative PBP4 inhibitors potentiated the antimicrobial effects of β-lactams toward S. aureus strains USA300 and CRB, as previously described. To do so, in triplicate 10^5 CFU of each strain (10 µL) was added to individual wells of a microtiter plate containing 90 µL MH media. […] Plates were incubated at 37 °C for 16–20 h and the lowest concentration of each test agent that inhibited bacterial growth alone or in combination was determined by the naked eye. The fractional inhibitory concentration (FIC) index was calculated using the formula: FIC of A (MIC of drug A in combination/MIC of drug A alone) + FIC B ([…]/MIC of drug B alone). A synergistic interaction was defined as a FICI value of less than 0.5, an additive interaction was defined as a FICI value between 0.5 and 1.0, an indifferent interaction was defined as a FICI value between 1.0 and 4.0, and an antagonistic interaction was defined as a FICI value of more than 4.0 [46].

For assay [1], the system named is S. aureus strain CRB∆pbp4. Briefly: Fractional inhibitory concentration checkerboard, ceftobiprole + putative PBP4 inhibitor, strain CRB∆pbp4. Format: cell-based, Staphylococcus aureus.
The test system of another assay is S. aureus USA300. Briefly: Triton X-100 susceptibility growth study. Format: cell-based, Staphylococcus aureus. The conditions noted are these: wild type USA300, 12.5 µM compound. The text has this: Cheung and colleagues have shown that S. aureus tolerance to Triton X-100 is mediated by PBP4 [25]. More directly, wild type cells are tolerant of 0.1% of the detergent, while pbp4 mutant cells are not. Accordingly, as a first test of whether 9314848 may affect PBP4’s cellular function, we evaluated whether compound treated wild type cells phenocopy the growth defect of pbp4 mutant cells in the presence of 0.1% triton X-100 (Figure 3B).
The effect of putative PBP4 inhibitors on bacterial growth in media supplemented with Triton X-100 was measured, as previously described. […] Cell suspensions were incubated at 37 °C with aeration and cell density (OD600nm) was recorded hourly for a total of 7–8 h.

In assay [2] the target is recombinant Bacillus subtilis PBP4 (Bacillus subtilis, UniProt P40750). Nature of the assay: BOCILLIN FL fluorescence polarization displacement assay, PBP4. Format: binding. How it is done: To more directly evaluate whether 9314848 is likely to affect PBP4 function, the compound’s ability to bind recombinant PBP4 was measured using BOCILLIN FL fluorescence polarization displacement assays. The premise for the assay is that the fluorescence polarization of the fluorescently labeled β-lactam, penicillin V (BOCILLIN FL), will increase upon binding to its cognate target (i.e., PBP4). Further, compounds that bind PBP4 and inhibit its function would impede BOCILLIN FL binding thereby allowing us to assess the protein binding affinity of 9314848 using a simple fluorescence reduction assay.
To determine whether the assay is amenable to measuring the binding properties of a compound that is known to bind PBP4 vs. a compound that is not expected to bind the protein we performed fluorescence polarization assays in which PBP4 was preincubated with either the β-lactam ampicillin, or the aminoglycoside kanamycin.
(§1) A dose response study was conducted (Figure 4B) in which PBP4 was preincubated with 0, 3.125, 6.25, 12.5, 25, or 50 µM of ampicillin, kanamycin, or 9314848.
First, fluorescence polarization assays were performed as previously described, but with minor modifications. Briefly, the indicated amount of the putative PBP4 inhibitor or control antibiotic was incubated with 1 µM recombinant B. subtilis PBP4 or S. aureus PBP2a in potassium phosphate buffer (40 mM K2HPO4 and 10 mM KH2PO4) for 1 h in black 96-well microtiter plates (Corning Life Sciences, Corning, NY, USA). Following incubation, 1 µM (final concentration) BOCILLIN FL penicillin was added, and the mixture was incubated for 30 min. BOCILLIN FL fluorescence polarization was measured at (495 nm excitation and 545 nm emission) in a SpectraMax M5 multimode plate reader (Molecular Devices, San Jose, CA, USA). […] The resulting data were plotted as percentage BOCILLIN FL binding inhibition = (T/U) × 100; T = FL polarization of ((PBP4+ BOCILLIN FL) − (PBP4+ BOCILLIN FL + inhibitor compound)), U = FL polarization of ((PBP4 + BOCILLIN FL) − (BOCILLIN FL)). Second, gel electrophoresis and fluorescence detection was used to measure BOCILLIN FL labeling of PBP4 treated with the known PBP4 inhibitor cefoxitin (positive control), kanamycin (negative control) or 9314848 (test compound), as previously described but with minor modifications. Briefly, 1 µM of recombinant PBP4 was mixed with 0, 50, 500, 2000, or 5000 µM 9314848 or control antibiotic in 50 mM phosphate buffer (pH 7.4) and incubated at 37 °C for 30 min. Next 40 μM of BOCILLIN FL was added to the reaction mixture and incubated for an additional 30 min at 37 °C. Reactions were stopped by adding 5× SDS-PAGE gel loading dye, heated at 100 °C for 3 min and separated by electrophoresis in 12% SDS-PAGE (2 h, 120 Volts). BOCILLIN FL labeled PBP4 was imaged at λ = 365 nm using a BioRad Gel Doc EZ Imaging system and the gel was then subsequently stained with Bio-safe Coomassie Brilliant Blue stain (BioRad, Hercules, CA, USA) to measure the amount of protein present in each reaction condition and analyzed using NIH-ImageJ software. The percent BOCILLIN FL binding was calculated by first normalizing the protein present in each reaction condition to that of untreated control and subsequently applying each reaction’s protein normalization factor to each reaction’s fluorescent signal. The percentage BOCILLIN FL binding inhibition was then calculated as the normalized band intensity of antibiotic/compound treated sample as compared to the control sample (PBP4 + BOCILLIN FL in the absence of compound).
Background: Polarisation of emitted light reports the rotation of a fluorescent probe.

The next assay addresses S. aureus PBP2a (Staphylococcus aureus, UniProt P07944). Nature of the assay: BOCILLIN FL fluorescence polarization assay, PBP2A. Format: binding. The conditions noted are these: 50 µM compound; read-out: Inhibition of BOCILLIN FL labeling of PBP2A. How it is done:
as §1
First, fluorescence polarization assays were performed as previously described, but with minor modifications. Briefly, the indicated amount of the putative PBP4 inhibitor or control antibiotic was incubated with 1 µM recombinant B. subtilis PBP4 or S. aureus PBP2a in potassium phosphate buffer (40 mM K2HPO4 and 10 mM KH2PO4) for 1 h in black 96-well microtiter plates (Corning Life Sciences, Corning, NY, USA). Following incubation, 1 µM (final concentration) BOCILLIN FL penicillin was added, and the mixture was incubated for 30 min. BOCILLIN FL fluorescence polarization was measured at (495 nm excitation and 545 nm emission) in a SpectraMax M5 multimode plate reader (Molecular Devices, San Jose, CA, USA). […] Second, gel electrophoresis and fluorescence detection was used to measure BOCILLIN FL labeling of PBP4 treated with the known PBP4 inhibitor cefoxitin (positive control), kanamycin (negative control) or 9314848 (test compound), as previously described but with minor modifications. […] The percentage BOCILLIN FL binding inhibition was then calculated as the normalized band intensity of antibiotic/compound treated sample as compared to the control sample (PBP4 + BOCILLIN FL in the absence of compound).

Another assay has as its system Enterococcus faecalis. Briefly: Ceftobiprole susceptibility with compound, Enterococcus faecalis. The settings on record: not shown. Format: cell-based. How it is done:
As a means to further evaluate whether the compound affects PBP4 activity a series of assays were performed.

recombinant Bacillus subtilis PBP4, sequence (P40750 22-624): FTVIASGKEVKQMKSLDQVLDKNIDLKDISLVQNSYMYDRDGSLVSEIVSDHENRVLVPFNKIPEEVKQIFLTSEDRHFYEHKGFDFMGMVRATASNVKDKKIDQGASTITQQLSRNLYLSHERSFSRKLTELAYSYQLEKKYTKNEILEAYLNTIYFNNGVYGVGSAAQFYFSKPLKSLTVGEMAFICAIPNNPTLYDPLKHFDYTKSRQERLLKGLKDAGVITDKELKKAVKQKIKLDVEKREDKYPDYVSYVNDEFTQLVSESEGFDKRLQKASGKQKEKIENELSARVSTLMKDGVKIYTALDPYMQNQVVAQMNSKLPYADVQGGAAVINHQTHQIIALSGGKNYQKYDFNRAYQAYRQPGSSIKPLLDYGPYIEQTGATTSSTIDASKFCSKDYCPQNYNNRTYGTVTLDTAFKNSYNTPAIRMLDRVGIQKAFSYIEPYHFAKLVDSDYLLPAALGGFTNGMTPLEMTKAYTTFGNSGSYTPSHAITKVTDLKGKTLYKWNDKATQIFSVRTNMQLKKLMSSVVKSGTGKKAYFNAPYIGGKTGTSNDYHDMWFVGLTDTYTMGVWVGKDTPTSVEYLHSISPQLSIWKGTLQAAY
S. aureus PBP2a, sequence (P07944 whole entry): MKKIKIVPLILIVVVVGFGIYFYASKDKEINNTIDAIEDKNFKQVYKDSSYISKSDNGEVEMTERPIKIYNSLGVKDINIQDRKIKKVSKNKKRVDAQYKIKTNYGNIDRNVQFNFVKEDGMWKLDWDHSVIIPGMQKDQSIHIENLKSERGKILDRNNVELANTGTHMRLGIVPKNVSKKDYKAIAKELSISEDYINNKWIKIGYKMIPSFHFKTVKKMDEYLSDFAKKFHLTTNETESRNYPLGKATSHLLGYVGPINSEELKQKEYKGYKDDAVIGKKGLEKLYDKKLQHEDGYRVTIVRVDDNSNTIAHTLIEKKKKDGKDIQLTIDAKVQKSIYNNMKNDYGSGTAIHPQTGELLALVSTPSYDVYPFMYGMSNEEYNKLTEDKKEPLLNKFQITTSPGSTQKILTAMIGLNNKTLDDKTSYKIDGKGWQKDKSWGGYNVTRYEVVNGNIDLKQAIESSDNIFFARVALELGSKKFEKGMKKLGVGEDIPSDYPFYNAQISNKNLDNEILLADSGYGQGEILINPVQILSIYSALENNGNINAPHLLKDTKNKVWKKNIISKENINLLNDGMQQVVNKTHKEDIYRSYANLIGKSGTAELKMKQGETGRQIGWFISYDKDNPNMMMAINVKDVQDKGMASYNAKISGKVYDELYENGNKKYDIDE

Regarding `CC1CCN(C(=O)c2cccc(NC(=O)Nc3ccc(Cl)cc3)c2)CC1` [Compound 9314848], the minimum inhibitory concentration (MIC) with S. aureus strain CRB (Staphylococcus aureus, read-out: CRB Alone Cmpd (putative PBP4 inhibitor MIC alone)) amounted to 400 µM; in assay [1] (Staphylococcus aureus, read-out: CRB∆pbp4 Alone Cmpd (putative PBP4 inhibitor MIC alone)), 400 µM. Moreover, the “CRB Combination BPR (ceftobiprole MIC in combination)” value in the assay on S. aureus strain CRB (strain CRB, ceftobiprole combined with the indicated putative PBP4 inhibitor) was determined as 8 µg/mL. For the same molecule, the “CRB Combination Cmpd (compound concentration in combination)” value in the assay with S. aureus strain CRB (strain CRB, compound combined with ceftobiprole) came to 25 µM. Further, in the assay with S. aureus strain CRB (strain CRB, in combination with the indicated putative PBP4 inhibitor), the “CRB Fold-decrease in ceftobiprole resistance in combination” value is listed as 16 fold. Besides, the “CRB∆pbp4 Combination BPR (ceftobiprole MIC in combination)” value in assay [1] (strain CRB∆pbp4, ceftobiprole combined with the indicated putative PBP4 inhibitor) is 0.125 µg/mL. For the same molecule, in assay [1] (strain CRB∆pbp4, compound combined with ceftobiprole), the “CRB∆pbp4 Combination Cmpd (compound concentration in combination)” value was 25 µM. Also, the “CRB∆pbp4 Fold-decrease in ceftobiprole resistance in combination” value in assay [1] (strain CRB∆pbp4, in combination with the indicated putative PBP4 inhibitor) is given as 2 fold. Further, the “Growth in the presence of Triton X-100” value in the assay on S. aureus USA300 (0.1% Triton X-100) is reported as “exhibited growth defect”. Also, the “Growth in the absence of detergent” value in the assay on S. aureus USA300 (no Triton X-100) is reported as “did not display a growth defect”. Besides, the “Binding to PBP4 at low concentration” value in assay [2] (3.125 µM and 6.25 µM) was “Minimal binding”. Besides, the “Reduction of BOCILLIN FL binding to PBP4” value in assay [2] (50 µM compound, fluorescence polarization) is on record as ~ 66%. Moreover, the “Effect of preincubation on BOCILLIN FL binding to PBP4 (fluorescence polarization)” value in assay [2] (50 µM, 1 µM PBP4) was “limited fluorescence polarization”. The IC50 in assay [2] (fluorescence polarization dose response 0-50 µM, read-out: IC50, PBP4 BOCILLIN FL binding inhibition) was determined as 13.4 µM. In addition, the inhibition at 50 µM at S. aureus PBP2a amounted to 25.8 ± 11.4%. In the assay on Enterococcus faecalis, the “Effect on ceftobiprole susceptibility” value is reported as “no effect”.

What is called MIC is the smallest concentration in the dilution series that meets the test's criterion for growth inhibition. One may read the IC50 as the concentration that inhibits the measured activity by half. What is called inhibition is the percentage by which the read-out fell short of the control.
